From a melting point compilation (Tetko et al.; mined from patent text by program, amines drawn as free bases though some values may be those of a salt)

Compound	melting point [°C]
N#Cc1ccc(C(=O)NCc2nn(-c3ccccc3Cl)c(-c3ccc(Cl)cc3)c2C#N)cc1	118
CC(=NC(C#N)=C(N)C#N)c1ccc(Cl)cc1	154 to 156
COC(=O)C1(NS(=O)(=O)c2ccc3c(Cl)cnc(NC(=N)N)c3c2)CCOCC1	245 to 247
O=C(O)C1=C(c2ccccc2)c2cc(Cl)ccc2OC1CC(F)(F)F (centres undefined)	226 to 227
Cc1cccc(NC(=O)NCC(=O)N2C(C(=O)OC(C)(C)C)CCCC2c2ccccc2)c1 (centres undefined)	123
CCCCc1nn(-c2ccccc2C(F)(F)F)c(=O)n1Cc1ccc(-c2ccccc2S(=O)(=O)NC(=O)[C@H]2CC2(C)C)cc1	93 to 95
O=S(=O)(Nc1cccc(CCOCc2sc3ccccc3c2Cl)c1)C(F)(F)F	85 to 87
O=C1OC(=Nc2ccc(Cl)cc2F)C2=C1CCCC2	81 to 84
O=C(O)c1cccc(-c2cccc(Oc3cc(Cl)cc(Cl)c3)n2)c1	234 to 235
Oc1cccc(CCNCc2ccccc2)c1	86 to 88
CCCNC(=O)ON(C(=O)NCCC)C(=O)C1CC1	76 to 78
O=C(N[C@H](CCCO)c1nc(-c2ccccc2)c(-c2ccccc2)o1)OCc1ccccc1	72.3 to 75.1
CNc1cccc2c1nc(-c1c(F)cccc1F)n2Cc1c(F)cccc1F	194 to 195
COc1c(C(=O)Nc2ccc(N(C(C)=O)S(C)(=O)=O)cc2)cc(N2CCC(=O)NC2=O)cc1C(C)(C)C	228 to 229
Cn1c(C(F)(F)F)cc(=O)n(-c2ccc(Cl)c3c2OC(C)(C)C3)c1=O	152 to 153
COc1ccc(C)cc1NC(=O)Nc1ccc(N2CCN(C(=O)Nc3cc(OCCO)ccc3Cl)CC2)nc1	132 to 134
Cn1ccc(NC(=S)S)n1	79 to 82
CC[C@H](C1CC1)n1cc(Cl)nc(N2CCc3cc(OC)cc(Br)c32)c1=O	138 to 140
COC(=O)COc1ccc(SCc2ccc(-c3ccc(C(F)(F)F)cc3)cc2)c2c1CCCO2	122 to 124
CCCCN(C(=O)C1CCCCC1)c1nn(C)cc1Cl	110 to 112
Cn1cc(C2=C(c3cccc(NC(O)CCO)c3)C(=O)NC2=O)c2ccccc21 (racemic)	97.5 to 101
CC12CCC3c4ccc(O)cc4CC(O)C3C1CCC2O (centres undefined)	254 to 257
O=C(Nc1cc(-c2cc(Nc3ccc(N4CCNCC4=O)cn3)c(=O)[nH]n2)ccc1F)c1cc2c(s1)CCCC2	285 to 287

Compound	melting point [°C]
O=S1(=O)CCCN1CCc1ccncc1	70
Nc1ccc(CCC(=O)N2CCCCC2)cc1[N+](=O)[O-]	140 to 141
CNC(=O)C(C)(C)N=NC(C)(C)C(=O)NC	153
CN1CCc2cc(C#CCO)cc3c(=O)c(C(=O)NCc4ccc(Cl)cc4)cn1c23	165 to 167
CCCc1ccccc1OCCCOc1ccc2c(=O)cc(-c3nnn[nH]3)oc2c1	191 to 193
O=c1[nH]ncc2[nH]c(-c3ccc(OC(F)F)c(OC4CC4)c3)c(C3CC3)c12	248 to 249
Cc1cc(C(=O)CCCCCCCCC(=O)c2cc(C)c(O)c(C(C)(C)C)c2)cc(C(C)(C)C)c1O	165 to 168
CCCCCCCCCCSC(=O)CS(=O)(=O)Nc1c(C(C)C)cccc1C(C)C	57 to 59
Cc1ccc(S(=O)(=O)C2(CC#Cc3ccc(Cl)cc3)SC(=O)N(C(c3ccccc3)(c3ccccc3)c3ccccc3)C2=O)cc1 (centres undefined)	221 to 223
Cc1ccc(O)c(Cn2c(N)nc3ccc(CNc4cccc(OC(F)(F)F)c4)cc32)n1	156
O=C(O)C[C@H](NC(=O)/C=C/C(=O)c1ccccc1)C(=O)O	154 to 156
CN(C(=O)c1cccc(S(=O)(=O)N(C)c2ccc(S(C)=O)cc2)c1)c1ccc(Cl)cc1F (centres undefined)	104 to 106
CCCCCCCC(=O)ON=C(c1ccccc1)c1cc(C(C)(C)C)c(O)c(C(C)(C)C)c1	76.3 to 77.2
Cc1ccc(-c2ccc3c(c2)C=C(C(=O)Nc2ccc(CN(C)C4CCSCC4)cc2)CO3)cc1	169 to 171
CC(=O)Nc1nccc(Oc2ccc3c(C(=O)Nc4ccc(F)c(C(F)(F)F)c4)cccc3c2)n1	213 to 214
CN1CC=C(c2c[nH]c3ccc(N)cc23)C(F)C1 (centres undefined)	176 to 178
Cc1oc(-c2ccccc2)nc1COc1ccccc1CO	155 to 156
COC(=O)C1=C(C)NC(C)=C(C(=O)O)C1c1ccccc1Cl (centres undefined)	210
Nc1ccc(NC(=O)C=C2CC(C(=O)O)Nc3cc(Cl)cc(Cl)c32)cc1 (racemic)	> 250
CN(C)CCC(=O)OC1c2ccccc2C(=O)N1c1ccc2ccc(Cl)nc2n1 (centres undefined)	150
CNC(=O)c1c(NC(=O)CCl)c(OC)c(C(=O)NC)c(NC(=O)CCl)c1OC	146 to 148
COc1ccc(C2(C#Cc3ccccc3)CCCC(=O)C2)cc1OC1CCCC1 (centres undefined)	90 to 91
C[C@@H]1Cc2ccsc2[C@H](c2ccccc2)N1CCNS(=O)(=O)c1ccc(NS(C)(=O)=O)cc1 (relative stereo)	155 to 158

Compound	melting point [°C]
COc1ccc(C(=O)N2CC3CC2C(=O)O3)cc1OC (centres undefined)	132
CCN(CC)C(=O)C(Cl)=C(Cl)C(=O)O	154 to 155
CCCOc1ccc([N+](=O)[O-])cc1C=O	51 to 52
O=C1N(C/C=C/C=C/c2ccccc2Cl)CCN1c1cccnc1	130 to 133
CCCCCCCCCCCCCCCc1cc2cc(C(=O)OCC)ccc2[nH]1	89 to 91
O=C(Oc1ccccc1)OC1CN(C(=O)Oc2ccccc2)CCC1c1ccccc1 (centres undefined)	153 to 154
CCOC(=O)C(=CNc1nnc(-c2cccnc2)s1)C(=O)OCC	144 to 145
CNCCOc1ccc(NC(=O)c2ccc(N3CCNCC3)cc2)c(C)c1	136 to 137
O=C(O)Cc1ccc(-n2cc(Cl)cn2)cc1	176 to 178
C[C@@H](NC(=NC#N)Nc1ccc(C#N)cc1)C(C)(C)C	159 to 160
N#CC1=C2C(=NC1=O)c1c(Sc3ccc(N)cc3)ccc3c(Sc4ccc(N)cc4)ccc2c13	288 to 290
CON=C1SC(C)(c2ccccc2)C(=O)N1Nc1ccccc1 (centres undefined)	133 to 134
CC1(C)CCCC=C1c1ccc(C(=O)N2Cc3cccn3Cc3ccccc32)cc1	118
O=c1[nH]c2cc(N3CCCC3)c(F)cc2c(=O)n1O	> 250
CCOc1nc(NCc2ccc(C)o2)nc(Nc2ccc(O)cc2)n1	40 to 42
CC(=O)SCC(Cc1ccccc1)C(=O)Nc1cccc(C(=O)O)c1C (centres undefined)	162 to 163
O=C(NCc1ccc(Cl)cc1)c1nnc2ccc(I)cc2c1O	307 to 308
O=C(Nc1nc2cnccc2s1)N1CCCC1	218 to 220
COc1ccc2[nH]c(SCc3nccc(N4CCOCC4)c3F)nc2c1	121 to 123
COc1ccc2cc(C(=O)CCC(=O)c3ccccc3)ccc2c1	164
Cc1cc(CC#N)cc(Cc2nc3c(F)c(F)cc(F)c3s2)c1	110 to 113
COc1cc(C=O)c(CCC(=O)O)c(C=O)c1O	164 to 166
Cc1nc(OCCCc2cc(OC(C)C)nn2Cc2ccc(Cl)cc2Cl)c(CC#N)s1	92 to 93
